Measurements reported in ChEMBL document CHEMBL1201862, “PubChem BioAssay data set” (2004).
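The compound was tested at five concentrations on cells cultured in 96-well plates, with a 48-hour exposure period. Here, GI50 denotes the concentration required for 50% inhibition of growth.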 Active and inactive are the calls of the source. No stated cut-off is given here; in the data, active = GI50 up to about 1.1 µM and inactive = higher.

How the values were obtained:
Test in all cases: DTP human tumour cell line panel, 48 h
786-0 = tested on: 786-0
A498 = tested on: A498
A549 = tested on: A549
ACHN = tested on: ACHN
BT-549 = tested on: BT-549
CCRF-CEM = tested on: CCRF-CEM
COLO 205 = tested on: COLO 205
DMS-114 = tested on: DMS-114
DMS-273 = tested on: DMS-273
DU-145 = tested on: DU-145
EKVX = tested on: EKVX
HCC 2998 = tested on: HCC 2998
HCT-116 = tested on: HCT-116
HCT-15 = tested on: HCT-15
HL-60 = tested on: HL-60
HOP-18 = tested on: HOP-18
HOP-62 = tested on: HOP-62
HOP-92 = tested on: HOP-92
HT-29 = tested on: HT-29
Hs-578T = tested on: Hs-578T
IGROV-1 = tested on: IGROV-1
K562 = tested on: K562
KM-20L2 = tested on: KM-20L2
KM12 = tested on: KM12
LOX IMVI = tested on: LOX IMVI
LXFL 529 = tested on: LXFL 529
M14 = tested on: M14
M19-MEL = tested on: M19-MEL
MCF7 = tested on: MCF7
MDA-MB-231 = tested on: MDA-MB-231
MDA-MB-435 = tested on: MDA-MB-435
MDA-N = tested on: MDA-N
MOLT-4 = tested on: MOLT-4
Malme-3M = tested on: Malme-3M
NCI-H226 = tested on: NCI-H226
NCI-H23 = tested on: NCI-H23
NCI-H460 = tested on: NCI-H460
NCI-H522 = tested on: NCI-H522
NCI/ADR-RES = tested on: NCI/ADR-RES
OVCAR-3 = tested on: OVCAR-3
OVCAR-4 = tested on: OVCAR-4
OVCAR-5 = tested on: OVCAR-5
OVCAR-8 = tested on: OVCAR-8
PC-3 = tested on: PC-3
RPMI-8226 = tested on: RPMI-8226
RXF 393 = tested on: RXF 393
SF-268 = tested on: SF-268
SF-295 = tested on: SF-295
SK-MEL-28 = tested on: SK-MEL-28
SK-MEL-2 = tested on: SK-MEL-2
SK-MEL-5 = tested on: SK-MEL-5
SK-OV-3 = tested on: SK-OV-3
SN12C = tested on: SN12C
SNB-19 = tested on: SNB-19
SNB-75 = tested on: SNB-75
SNB-78 = tested on: SNB-78
SR = tested on: SR
SW-620 = tested on: SW-620
T47D = tested on: T47D
TK-10 = tested on: TK-10
U-251 = tested on: U-251
UACC-257 = tested on: UACC-257
UACC-62 = tested on: UACC-62
UO-31 = tested on: UO-31
XF498 = tested on: XF498
CAKI-1 = tested on: CAKI-1
DLD-1 = tested on: DLD-1

COc1ccc(NC(=O)CSc2nnc(-c3ccc(/N=C\c4ccc(Cl)cc4)cc3)o2)cc1
GI50 (786-0): 37.8 µM (inactive) | GI50 (A498): > 100 µM (inactive) | GI50 (A549): > 100 µM (inactive) | GI50 (ACHN): > 52.4 µM (inactive) | GI50 (BT-549): 17 µM (inactive) | GI50 (CCRF-CEM): 8.22 µM (inactive) | GI50 (COLO 205): 20 µM (inactive) | GI50 (DMS-114): 15.2 µM (inactive) | GI50 (DMS-273): 26.8 µM (inactive) | GI50 (DU-145): 34.5 µM (inactive) | GI50 (EKVX): > 59.2 µM (inactive) | GI50 (HCC 2998): 52.8 µM (inactive) | GI50 (HCT-116): 14.2 µM (inactive) | GI50 (HCT-15): 4.78 µM | GI50 (HL-60): 4.85 µM (inactive) | GI50 (HOP-18): 12.5 µM (inactive) | GI50 (HOP-62): 24.8 µM (inactive) | GI50 (HOP-92): 14.4 µM (inactive) | GI50 (HT-29): 42.8 µM (inactive) | GI50 (Hs-578T): 77.6 µM (inactive) | GI50 (IGROV-1): 39.5 µM (inactive) | GI50 (K562): 11 µM (inactive) | GI50 (KM-20L2): 39.6 µM (inactive) | GI50 (KM12): 29.9 µM (inactive) | GI50 (LOX IMVI): 7.98 µM (inactive) | GI50 (LXFL 529): 16.5 µM (inactive) | GI50 (M14): 26.5 µM (inactive) | GI50 (M19-MEL): 15 µM (inactive) | GI50 (MCF7): 23.2 µM (inactive) | GI50 (MDA-MB-231): 34.5 µM (inactive) | GI50 (MDA-MB-435): 34 µM (inactive) | GI50 (MDA-N): 39.6 µM (inactive) | GI50 (MOLT-4): 13.9 µM (inactive) | GI50 (Malme-3M): 34 µM (inactive) | GI50 (NCI-H226): > 44.6 µM (inactive) | GI50 (NCI-H23): 36 µM (inactive) | GI50 (NCI-H460): > 67.3 µM (inactive) | GI50 (NCI-H522): 26.7 µM (inactive) | GI50 (NCI/ADR-RES): 42.3 µM (inactive) | GI50 (OVCAR-3): 21.4 µM (inactive) | GI50 (OVCAR-4): 23.5 µM (inactive) | GI50 (OVCAR-5): > 100 µM (inactive) | GI50 (OVCAR-8): 35.9 µM (inactive) | GI50 (PC-3): 22 µM (inactive) | GI50 (RPMI-8226): 9.06 µM (inactive) | GI50 (RXF 393): > 69.7 µM (inactive) | GI50 (SF-268): 13.6 µM (inactive) | GI50 (SF-295): 48.5 µM (inactive) | GI50 (SK-MEL-28): > 45.1 µM (inactive) | GI50 (SK-MEL-2): 15 µM (inactive) | GI50 (SK-MEL-5): 27.3 µM (inactive) | GI50 (SK-OV-3): 51.8 µM (inactive) | GI50 (SN12C): 16.1 µM (inactive) | GI50 (SNB-19): 29.9 µM (inactive) | GI50 (SNB-75): 31.6 µM (inactive) | GI50 (SNB-78): 24.9 µM (inactive) | GI50 (SR): 13.3 µM (inactive) | GI50 (SW-620): 22.1 µM (inactive) | GI50 (T47D): 21.2 µM (inactive) | GI50 (TK-10): > 100 µM (inactive) | GI50 (U-251): 24.8 µM (inactive) | GI50 (UACC-257): 46.5 µM (inactive) | GI50 (UACC-62): 28.8 µM (inactive) | GI50 (UO-31): > 54.7 µM (inactive) | GI50 (XF498): 17.1 µM (inactive)

CCc1cccc(C)c1NC(=O)CC(=O)NNC(N)=S
GI50 (786-0): > 100 µM (inactive) | GI50 (A549): > 100 µM (inactive) | GI50 (ACHN): > 100 µM (inactive) | GI50 (CAKI-1): > 100 µM (inactive) | GI50 (CCRF-CEM): > 100 µM (inactive) | GI50 (COLO 205): > 100 µM (inactive) | GI50 (DLD-1): > 100 µM (inactive) | GI50 (DMS-114): > 100 µM (inactive) | GI50 (DMS-273): > 100 µM (inactive) | GI50 (EKVX): > 100 µM (inactive) | GI50 (HCC 2998): > 100 µM (inactive) | GI50 (HCT-15): > 100 µM | GI50 (HL-60): > 100 µM (inactive) | GI50 (HOP-18): > 100 µM (inactive) | GI50 (HOP-62): > 100 µM (inactive) | GI50 (HOP-92): > 100 µM (inactive) | GI50 (HT-29): > 100 µM (inactive) | GI50 (K562): > 100 µM (inactive) | GI50 (KM-20L2): > 100 µM (inactive) | GI50 (KM12): > 100 µM (inactive) | GI50 (LOX IMVI): > 100 µM (inactive) | GI50 (LXFL 529): > 100 µM (inactive) | GI50 (M14): > 100 µM (inactive) | GI50 (MOLT-4): > 100 µM (inactive) | GI50 (Malme-3M): > 100 µM (inactive) | GI50 (NCI-H226): > 100 µM (inactive) | GI50 (NCI-H23): > 100 µM (inactive) | GI50 (NCI-H460): > 100 µM (inactive) | GI50 (NCI-H522): > 100 µM (inactive) | GI50 (OVCAR-3): > 100 µM (inactive) | GI50 (OVCAR-4): > 100 µM (inactive) | GI50 (OVCAR-5): > 100 µM (inactive) | GI50 (OVCAR-8): > 100 µM (inactive) | GI50 (RPMI-8226): > 100 µM (inactive) | GI50 (RXF 393): > 100 µM (inactive) | GI50 (SF-268): > 100 µM (inactive) | GI50 (SF-295): > 100 µM (inactive) | GI50 (SK-MEL-28): > 100 µM (inactive) | GI50 (SK-MEL-5): > 100 µM (inactive) | GI50 (SK-OV-3): > 100 µM (inactive) | GI50 (SN12C): > 100 µM (inactive) | GI50 (SNB-19): > 100 µM (inactive) | GI50 (SNB-75): > 100 µM (inactive) | GI50 (SNB-78): > 100 µM (inactive) | GI50 (SW-620): > 100 µM (inactive) | GI50 (TK-10): > 100 µM (inactive) | GI50 (U-251): > 100 µM (inactive) | GI50 (UACC-257): > 100 µM (inactive) | GI50 (UO-31): > 100 µM (inactive) | GI50 (XF498): > 100 µM (inactive)
